Test results from paper PMC11602622, “Evolution of queen pheromone receptor tuning in four honeybee species (Hymenoptera, Apidae, Apis)” (iScience, 2024).
Changes are numbered by the printed parent chain.

Assays:
AcerOR11 [1] = molecular target: T1, AcerOR11 (Apis cerana, UniProt A0A3G2FPT9); experiment: transcuticular GCaMP6m calcium imaging of Drosophila antenna, dose-response; assay type: cell-based; details: agonist; airborne odorant, unit is dose loaded on filter paper, not a concentration; 1 s stimulus; solvent 2-propanol
T1 construct: full-length ORF, Drosophila codon-optimized synthetic gene (pUAST.attB, locus 51C); expressed in Drosophila at1 OSNs in place of DmelOR67d, with endogenous fly Orco and GCaMP6m; same length as the other OR11
T1 sequence (A0A3G2FPT9 1-394): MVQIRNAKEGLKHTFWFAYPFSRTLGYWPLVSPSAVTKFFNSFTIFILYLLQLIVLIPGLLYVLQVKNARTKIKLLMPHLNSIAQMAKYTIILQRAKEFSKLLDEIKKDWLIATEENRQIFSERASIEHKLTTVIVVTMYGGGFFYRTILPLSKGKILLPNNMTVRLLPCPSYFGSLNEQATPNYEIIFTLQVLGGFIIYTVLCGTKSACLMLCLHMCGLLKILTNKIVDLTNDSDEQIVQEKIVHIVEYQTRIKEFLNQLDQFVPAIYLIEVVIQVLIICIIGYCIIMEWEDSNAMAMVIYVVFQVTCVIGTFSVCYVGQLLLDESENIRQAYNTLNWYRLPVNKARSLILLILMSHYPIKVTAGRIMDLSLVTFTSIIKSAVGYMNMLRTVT

AmelOR11 = molecular target: T2, AmelOR11 (Apis mellifera, UniProt A0A7M6UWX0); experiment: as above; assay type: cell-based; details: agonist; airborne odorant, unit is dose loaded on filter paper, not a concentration; 1 s stimulus; solvent 2-propanol
T2 construct: gene Or11; full-length ORF, Drosophila codon-optimized synthetic gene (pUAST.attB, locus 51C); expressed in Drosophila at1 OSNs in place of DmelOR67d, with endogenous fly Orco and GCaMP6m; same length as the other OR11
T2 sequence (A0A7M6UWX0 1-394): T1 sequence (A0A3G2FPT9 1-394) with V36F, I47T, L50F, Q52E, A69P, I112L, I228V, V229M, I239V, N345K

AdorOR11 = test system: T3, AdorOR11; experiment: as above; assay type: cell-based, Apis dorsata; details: agonist; airborne odorant, unit is dose loaded on filter paper, not a concentration; 1 s stimulus; solvent 2-propanol
T3 construct: gene OR11; full-length ORF, Drosophila codon-optimized synthetic gene (pUAST.attB, locus 51C); expressed in Drosophila at1 OSNs in place of DmelOR67d, with endogenous fly Orco and GCaMP6m; same length as the other OR11

AcerOR11 [2] = molecular target: T1, AcerOR11; experiment: transcuticular GCaMP6m calcium imaging of Drosophila antenna, single-dose screen; assay type: cell-based; details: agonist; 100 μg on filter paper; 1 s stimulus; solvent 2-propanol
AflorOR11 = test system: T4, AflorOR11; experiment: transcuticular GCaMP6m calcium imaging of Drosophila antenna, dose-response; assay type: cell-based, Apis florea; details: agonist; airborne odorant, unit is dose loaded on filter paper, not a concentration; 1 s stimulus; solvent 2-propanol
T4 construct: gene OR11; full-length ORF, Drosophila codon-optimized synthetic gene (pUAST.attB, locus 51C); expressed in Drosophila at1 OSNs in place of DmelOR67d, with endogenous fly Orco and GCaMP6m; same length as the other OR11

| EC50 (AcerOR11 [1]) [µg] | EC50 (AmelOR11) [µg] | EC50 (AdorOR11) [µg] | EC50 (AflorOR11) [µg] | SMILES | calcium response (ΔF/F0) (AcerOR11 [2]) |
| --- | --- | --- | --- | --- | --- |
| 208.5 ± 39.57 | 84.26 ± 15.52 | 139.3 ± 28.55 |  | CCCC(=O)C(=O)O [2-oxovaleric acid] |  |
|  |  |  |  | CC(=O)CCC=C(C)C [6-methyl-5-hepten-2-one] | AcerOR11 responded to a third secondary ligand: 6-methyl-5-hepten-2-one |
| 174.8 ± 26.05 | 160.5 ± 28.46 | 173.4 ± 22.22 | 175.8 ± 29.59 | CC(=O)CCCCC/C=C/C(=O)O [9-ODA, 9-oxo-(E)-2-decenoic acid] |  |
| 105.8 ± 9.62 | 239.2 ± 72.06 | 124.2 ± 9.58 |  | CCC/C=C/C(=O)O [trans-2-hexenoic acid] |  |
